# ChEMBL document CHEMBL3393036, “Tetra-substituted pyridinylimidazoles as dual inhibitors of p38α mitogen-activated protein kinase and c-Jun N-terminal kinase 3 for potential treatment of neurodegenerative diseases” (J Med Chem, 2015)
# Molecular target: Cyclin-dependent kinase 4/cyclin D1 (Homo sapiens) (UniProt P11802+P24385)
# Assay: Inhibition of CDK4D1 (unknown origin) at 5.5 uM by Caliper Mobility Shift Assay
# Assay type: protein-complex assay
row,SMILES,inhibition
1,CC(=O)Nc1cc(-c2c(-c3ccc(F)cc3)nc(S/C=C\C(=O)O)n2C2CC2)ccn1,< 50%
2,CC(=O)Nc1cc(-c2c(-c3ccc(F)cc3)nc(Sc3cccc(I)n3)n2C2CCCCC2)ccn1,< 50%

# Molecular target: T1, Serine/threonine-protein kinase 4 (Homo sapiens) (UniProt Q13043)
# T1 sequence (whole entry): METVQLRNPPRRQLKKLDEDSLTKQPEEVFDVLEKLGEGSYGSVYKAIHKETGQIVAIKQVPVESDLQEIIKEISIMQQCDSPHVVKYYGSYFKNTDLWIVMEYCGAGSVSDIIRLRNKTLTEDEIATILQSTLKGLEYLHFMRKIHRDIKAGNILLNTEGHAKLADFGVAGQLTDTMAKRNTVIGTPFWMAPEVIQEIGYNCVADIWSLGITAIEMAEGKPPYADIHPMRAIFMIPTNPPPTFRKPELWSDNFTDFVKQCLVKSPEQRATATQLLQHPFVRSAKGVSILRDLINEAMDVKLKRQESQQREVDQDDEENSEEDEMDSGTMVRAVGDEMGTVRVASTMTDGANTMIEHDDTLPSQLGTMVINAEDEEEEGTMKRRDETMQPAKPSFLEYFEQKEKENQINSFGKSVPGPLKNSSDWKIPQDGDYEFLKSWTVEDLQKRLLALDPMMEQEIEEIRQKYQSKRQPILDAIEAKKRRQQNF
# Assay: Inhibition of STK4 (unknown origin) at 5.5 uM by Caliper Mobility Shift Assay
row,SMILES,inhibition
1,CC(=O)Nc1cc(-c2c(-c3ccc(F)cc3)nc(S/C=C\C(=O)O)n2C2CC2)ccn1,< 50%
2,CC(=O)Nc1cc(-c2c(-c3ccc(F)cc3)nc(Sc3cccc(I)n3)n2C2CCCCC2)ccn1,< 50%

# Molecular target: ALK tyrosine kinase receptor (Homo sapiens) (UniProt Q9UM73)
# Sequence (Q9UM73 19-1620 limits assumed): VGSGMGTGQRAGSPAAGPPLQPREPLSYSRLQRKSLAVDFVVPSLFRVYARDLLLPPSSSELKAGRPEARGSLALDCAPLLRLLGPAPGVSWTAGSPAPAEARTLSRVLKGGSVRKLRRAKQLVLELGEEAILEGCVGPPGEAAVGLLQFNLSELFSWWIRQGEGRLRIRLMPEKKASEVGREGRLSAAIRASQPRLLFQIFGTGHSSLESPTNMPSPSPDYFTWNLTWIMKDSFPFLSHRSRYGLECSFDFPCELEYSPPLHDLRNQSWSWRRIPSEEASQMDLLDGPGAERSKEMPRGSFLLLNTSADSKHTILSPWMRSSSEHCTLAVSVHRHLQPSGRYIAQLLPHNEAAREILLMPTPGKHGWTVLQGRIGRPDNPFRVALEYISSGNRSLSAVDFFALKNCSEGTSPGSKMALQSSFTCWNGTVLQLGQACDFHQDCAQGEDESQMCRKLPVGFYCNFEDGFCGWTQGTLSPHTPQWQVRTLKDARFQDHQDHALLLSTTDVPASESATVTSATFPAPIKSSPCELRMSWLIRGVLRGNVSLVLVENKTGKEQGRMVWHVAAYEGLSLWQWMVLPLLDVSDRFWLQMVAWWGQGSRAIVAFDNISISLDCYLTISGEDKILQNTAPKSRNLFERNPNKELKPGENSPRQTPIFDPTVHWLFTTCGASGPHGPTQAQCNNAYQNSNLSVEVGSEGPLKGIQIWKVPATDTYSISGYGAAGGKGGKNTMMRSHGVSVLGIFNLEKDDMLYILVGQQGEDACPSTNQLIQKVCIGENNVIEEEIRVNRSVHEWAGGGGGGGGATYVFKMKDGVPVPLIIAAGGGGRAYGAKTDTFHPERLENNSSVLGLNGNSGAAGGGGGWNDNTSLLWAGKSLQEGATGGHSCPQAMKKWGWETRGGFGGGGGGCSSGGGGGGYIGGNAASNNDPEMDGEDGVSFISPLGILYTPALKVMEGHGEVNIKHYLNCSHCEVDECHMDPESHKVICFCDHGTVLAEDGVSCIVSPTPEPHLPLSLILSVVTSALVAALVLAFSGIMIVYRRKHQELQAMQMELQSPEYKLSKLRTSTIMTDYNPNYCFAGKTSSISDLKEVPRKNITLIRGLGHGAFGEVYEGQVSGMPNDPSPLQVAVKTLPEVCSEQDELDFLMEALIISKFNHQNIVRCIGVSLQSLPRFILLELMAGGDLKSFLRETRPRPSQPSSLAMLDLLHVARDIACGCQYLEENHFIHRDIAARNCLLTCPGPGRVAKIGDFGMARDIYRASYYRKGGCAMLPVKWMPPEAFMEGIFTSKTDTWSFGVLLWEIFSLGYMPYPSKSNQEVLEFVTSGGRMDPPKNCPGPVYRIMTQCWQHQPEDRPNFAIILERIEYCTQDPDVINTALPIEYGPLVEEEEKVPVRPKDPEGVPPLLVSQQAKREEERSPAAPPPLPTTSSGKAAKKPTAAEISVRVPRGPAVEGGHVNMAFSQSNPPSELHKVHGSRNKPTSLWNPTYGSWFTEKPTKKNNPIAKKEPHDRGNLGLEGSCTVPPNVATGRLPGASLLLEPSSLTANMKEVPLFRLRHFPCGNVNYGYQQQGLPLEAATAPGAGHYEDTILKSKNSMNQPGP
# Assay: Inhibition of ALK (unknown origin) at 5.5 uM by Caliper Mobility Shift Assay
row,SMILES,inhibition
1,CC(=O)Nc1cc(-c2c(-c3ccc(F)cc3)nc(S/C=C\C(=O)O)n2C2CC2)ccn1,< 50%
2,CC(=O)Nc1cc(-c2c(-c3ccc(F)cc3)nc(Sc3cccc(I)n3)n2C2CCCCC2)ccn1,< 50%

# Species: Homo sapiens
# Assay: Inhibition of PRKACA(PKA) (unknown origin) at 5.5 uM by Caliper Mobility Shift Assay
row,SMILES,inhibition
1,CC(=O)Nc1cc(-c2c(-c3ccc(F)cc3)nc(S/C=C\C(=O)O)n2C2CC2)ccn1,< 50%
2,CC(=O)Nc1cc(-c2c(-c3ccc(F)cc3)nc(Sc3cccc(I)n3)n2C2CCCCC2)ccn1,< 50%

# Molecular target: Fibroblast growth factor receptor 3 (Homo sapiens) (UniProt P22607)
# Assay: Inhibition of FGFR3 (unknown origin) at 5.5 uM by Caliper Mobility Shift Assay
row,SMILES,inhibition
1,CC(=O)Nc1cc(-c2c(-c3ccc(F)cc3)nc(S/C=C\C(=O)O)n2C2CC2)ccn1,< 50%
2,CC(=O)Nc1cc(-c2c(-c3ccc(F)cc3)nc(Sc3cccc(I)n3)n2C2CCCCC2)ccn1,< 50%

# Molecular target: Receptor-type tyrosine-protein kinase FLT3 (Homo sapiens) (UniProt P36888)
# Sequence (P36888 whole entry): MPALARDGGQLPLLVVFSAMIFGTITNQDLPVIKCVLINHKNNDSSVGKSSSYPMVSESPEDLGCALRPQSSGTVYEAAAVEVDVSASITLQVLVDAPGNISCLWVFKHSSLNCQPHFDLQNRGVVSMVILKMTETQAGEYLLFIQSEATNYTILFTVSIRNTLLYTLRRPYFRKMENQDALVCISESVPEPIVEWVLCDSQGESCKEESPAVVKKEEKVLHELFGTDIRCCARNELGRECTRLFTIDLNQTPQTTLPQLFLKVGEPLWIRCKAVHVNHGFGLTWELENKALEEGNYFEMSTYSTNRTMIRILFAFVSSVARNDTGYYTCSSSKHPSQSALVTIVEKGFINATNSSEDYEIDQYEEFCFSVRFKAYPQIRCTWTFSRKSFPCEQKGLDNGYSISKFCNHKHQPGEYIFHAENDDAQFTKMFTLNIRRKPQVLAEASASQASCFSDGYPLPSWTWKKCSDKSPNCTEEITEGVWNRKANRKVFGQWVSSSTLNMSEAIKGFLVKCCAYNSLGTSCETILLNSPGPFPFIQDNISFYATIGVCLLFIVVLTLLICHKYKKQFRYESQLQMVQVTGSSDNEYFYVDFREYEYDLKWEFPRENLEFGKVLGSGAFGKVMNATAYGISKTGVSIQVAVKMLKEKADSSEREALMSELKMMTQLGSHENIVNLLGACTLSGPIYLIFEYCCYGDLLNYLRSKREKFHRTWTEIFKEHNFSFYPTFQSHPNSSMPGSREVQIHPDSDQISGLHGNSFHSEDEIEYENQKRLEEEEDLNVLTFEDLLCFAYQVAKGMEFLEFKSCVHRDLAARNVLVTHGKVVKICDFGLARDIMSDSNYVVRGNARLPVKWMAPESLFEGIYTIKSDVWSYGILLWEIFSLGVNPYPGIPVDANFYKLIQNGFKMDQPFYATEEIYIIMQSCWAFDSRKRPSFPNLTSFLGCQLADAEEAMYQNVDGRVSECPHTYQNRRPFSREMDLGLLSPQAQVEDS
# Assay: Inhibition of FLT3 (unknown origin) at 5.5 uM by Caliper Mobility Shift Assay
row,SMILES,inhibition
1,CC(=O)Nc1cc(-c2c(-c3ccc(F)cc3)nc(S/C=C\C(=O)O)n2C2CC2)ccn1,< 50%
2,CC(=O)Nc1cc(-c2c(-c3ccc(F)cc3)nc(Sc3cccc(I)n3)n2C2CCCCC2)ccn1,< 50%

# Molecular target: Calcium/calmodulin-dependent protein kinase type II subunit beta (Homo sapiens) (UniProt Q13554)
# Assay: Inhibition of CAMK2 (unknown origin) at 5.5 uM by Caliper Mobility Shift Assay
row,SMILES,inhibition
1,CC(=O)Nc1cc(-c2c(-c3ccc(F)cc3)nc(S/C=C\C(=O)O)n2C2CC2)ccn1,< 50%
2,CC(=O)Nc1cc(-c2c(-c3ccc(F)cc3)nc(Sc3cccc(I)n3)n2C2CCCCC2)ccn1,< 50%

# Molecular target: Tyrosine-protein kinase Lck (Homo sapiens) (UniProt P06239)
# Sequence (P06239 2-509 limits assumed): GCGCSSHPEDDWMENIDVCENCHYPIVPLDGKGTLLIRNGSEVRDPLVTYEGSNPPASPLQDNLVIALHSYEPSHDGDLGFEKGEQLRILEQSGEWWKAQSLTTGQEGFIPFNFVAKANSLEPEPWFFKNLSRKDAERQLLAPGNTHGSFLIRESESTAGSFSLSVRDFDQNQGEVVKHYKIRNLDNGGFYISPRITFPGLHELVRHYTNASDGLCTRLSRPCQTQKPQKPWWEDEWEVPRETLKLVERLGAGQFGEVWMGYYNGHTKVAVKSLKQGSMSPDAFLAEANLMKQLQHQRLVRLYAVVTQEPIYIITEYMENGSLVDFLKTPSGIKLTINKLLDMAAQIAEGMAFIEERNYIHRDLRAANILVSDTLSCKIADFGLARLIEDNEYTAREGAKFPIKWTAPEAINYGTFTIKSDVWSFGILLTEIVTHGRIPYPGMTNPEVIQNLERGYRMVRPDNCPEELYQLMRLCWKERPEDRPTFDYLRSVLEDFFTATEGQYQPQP
# Assay: Inhibition of LCK (unknown origin) at 5.5 uM by Caliper Mobility Shift Assay
row,SMILES,inhibition
1,CC(=O)Nc1cc(-c2c(-c3ccc(F)cc3)nc(S/C=C\C(=O)O)n2C2CC2)ccn1,< 50%
2,CC(=O)Nc1cc(-c2c(-c3ccc(F)cc3)nc(Sc3cccc(I)n3)n2C2CCCCC2)ccn1,< 50%

# Molecular target: Mitogen-activated protein kinase 10 (Homo sapiens, UniProt P53779)
# Sequence (P53779 whole entry): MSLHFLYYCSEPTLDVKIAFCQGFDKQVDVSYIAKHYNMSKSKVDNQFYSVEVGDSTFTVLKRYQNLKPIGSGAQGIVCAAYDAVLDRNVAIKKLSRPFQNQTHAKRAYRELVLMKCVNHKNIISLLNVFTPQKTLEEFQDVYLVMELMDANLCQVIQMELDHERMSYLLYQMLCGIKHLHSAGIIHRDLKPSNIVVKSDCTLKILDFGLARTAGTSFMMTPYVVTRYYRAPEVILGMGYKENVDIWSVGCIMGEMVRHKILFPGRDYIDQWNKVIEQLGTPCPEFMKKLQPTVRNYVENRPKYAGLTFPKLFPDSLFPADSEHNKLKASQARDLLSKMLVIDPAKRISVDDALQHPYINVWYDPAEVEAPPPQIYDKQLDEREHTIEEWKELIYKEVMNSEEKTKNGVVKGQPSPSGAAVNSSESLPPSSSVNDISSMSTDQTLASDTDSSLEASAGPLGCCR
# Assay: Inhibition of MAPK10 (JNK3) (unknown origin) at 5.5 uM by Caliper Mobility Shift Assay
row,SMILES,inhibition
1,CC(=O)Nc1cc(-c2c(-c3ccc(F)cc3)nc(S/C=C\C(=O)O)n2C2CC2)ccn1,< 50%
2,CC(=O)Nc1cc(-c2c(-c3ccc(F)cc3)nc(Sc3cccc(I)n3)n2C2CCCCC2)ccn1,< 50%

# Molecular target: Platelet-derived growth factor receptor alpha (Homo sapiens) (UniProt P16234)
# Assay: Inhibition of PDGFRa (unknown origin) at 5.5 uM by Caliper Mobility Shift Assay
row,SMILES,inhibition
1,CC(=O)Nc1cc(-c2c(-c3ccc(F)cc3)nc(S/C=C\C(=O)O)n2C2CC2)ccn1,< 50%
2,CC(=O)Nc1cc(-c2c(-c3ccc(F)cc3)nc(Sc3cccc(I)n3)n2C2CCCCC2)ccn1,< 50%

# Molecular target: Tyrosine-protein kinase JAK1 (Homo sapiens) (UniProt P23458)
# Assay: Inhibition of JAK1 (unknown origin) at 5.5 uM by Caliper Mobility Shift Assay
row,SMILES,inhibition
1,CC(=O)Nc1cc(-c2c(-c3ccc(F)cc3)nc(S/C=C\C(=O)O)n2C2CC2)ccn1,< 50%
2,CC(=O)Nc1cc(-c2c(-c3ccc(F)cc3)nc(Sc3cccc(I)n3)n2C2CCCCC2)ccn1,< 50%

# Molecular target: RAC-alpha serine/threonine-protein kinase (Homo sapiens) (UniProt P31749)
# Sequence (P31749 whole entry): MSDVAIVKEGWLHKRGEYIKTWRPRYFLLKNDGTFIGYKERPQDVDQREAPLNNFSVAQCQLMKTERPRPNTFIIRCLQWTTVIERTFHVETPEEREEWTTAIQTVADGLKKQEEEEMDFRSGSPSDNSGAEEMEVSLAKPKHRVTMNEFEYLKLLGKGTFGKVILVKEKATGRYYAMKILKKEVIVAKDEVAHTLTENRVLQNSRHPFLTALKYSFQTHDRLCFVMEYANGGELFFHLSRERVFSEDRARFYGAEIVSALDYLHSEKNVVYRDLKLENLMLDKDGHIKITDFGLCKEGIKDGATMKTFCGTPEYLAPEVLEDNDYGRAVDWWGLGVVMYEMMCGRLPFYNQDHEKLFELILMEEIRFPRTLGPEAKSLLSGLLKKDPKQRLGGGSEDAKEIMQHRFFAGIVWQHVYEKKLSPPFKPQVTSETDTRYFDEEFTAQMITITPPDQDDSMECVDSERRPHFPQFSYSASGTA
# Assay: Inhibition of AKT1 (PKBa) (unknown origin) at 5.5 uM by Caliper Mobility Shift Assay
row,SMILES,inhibition
1,CC(=O)Nc1cc(-c2c(-c3ccc(F)cc3)nc(S/C=C\C(=O)O)n2C2CC2)ccn1,< 50%
2,CC(=O)Nc1cc(-c2c(-c3ccc(F)cc3)nc(Sc3cccc(I)n3)n2C2CCCCC2)ccn1,< 50%

# Molecular target: T2, Serine/threonine-protein kinase 17B (Homo sapiens) (UniProt O94768)
# T2 sequence (whole entry): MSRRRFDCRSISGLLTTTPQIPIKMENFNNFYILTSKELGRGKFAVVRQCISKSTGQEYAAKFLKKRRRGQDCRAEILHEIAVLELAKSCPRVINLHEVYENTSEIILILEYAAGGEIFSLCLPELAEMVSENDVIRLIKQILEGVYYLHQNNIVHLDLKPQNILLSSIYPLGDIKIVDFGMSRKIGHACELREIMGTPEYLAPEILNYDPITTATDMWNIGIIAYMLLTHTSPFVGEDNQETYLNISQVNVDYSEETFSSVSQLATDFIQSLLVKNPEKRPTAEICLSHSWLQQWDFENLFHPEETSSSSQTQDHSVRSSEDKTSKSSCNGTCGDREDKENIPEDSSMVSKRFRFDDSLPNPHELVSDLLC
# Assay: Inhibition of STK17B (unknown origin) at 5.5 uM by Caliper Mobility Shift Assay
row,SMILES,inhibition
1,CC(=O)Nc1cc(-c2c(-c3ccc(F)cc3)nc(S/C=C\C(=O)O)n2C2CC2)ccn1,< 50%
2,CC(=O)Nc1cc(-c2c(-c3ccc(F)cc3)nc(Sc3cccc(I)n3)n2C2CCCCC2)ccn1,< 50%

# Molecular target: Cyclin-dependent kinase 2 (Homo sapiens) (UniProt P24941)
# Assay: Inhibition of CDK2 (unknown origin) at 5.5 uM by Caliper Mobility Shift Assay
row,SMILES,inhibition
1,CC(=O)Nc1cc(-c2c(-c3ccc(F)cc3)nc(S/C=C\C(=O)O)n2C2CC2)ccn1,< 50%
2,CC(=O)Nc1cc(-c2c(-c3ccc(F)cc3)nc(Sc3cccc(I)n3)n2C2CCCCC2)ccn1,< 50%

# Molecular target: Fibroblast growth factor receptor 4 (Homo sapiens) (UniProt P22455)
# Sequence (P22455 22-802 limits assumed): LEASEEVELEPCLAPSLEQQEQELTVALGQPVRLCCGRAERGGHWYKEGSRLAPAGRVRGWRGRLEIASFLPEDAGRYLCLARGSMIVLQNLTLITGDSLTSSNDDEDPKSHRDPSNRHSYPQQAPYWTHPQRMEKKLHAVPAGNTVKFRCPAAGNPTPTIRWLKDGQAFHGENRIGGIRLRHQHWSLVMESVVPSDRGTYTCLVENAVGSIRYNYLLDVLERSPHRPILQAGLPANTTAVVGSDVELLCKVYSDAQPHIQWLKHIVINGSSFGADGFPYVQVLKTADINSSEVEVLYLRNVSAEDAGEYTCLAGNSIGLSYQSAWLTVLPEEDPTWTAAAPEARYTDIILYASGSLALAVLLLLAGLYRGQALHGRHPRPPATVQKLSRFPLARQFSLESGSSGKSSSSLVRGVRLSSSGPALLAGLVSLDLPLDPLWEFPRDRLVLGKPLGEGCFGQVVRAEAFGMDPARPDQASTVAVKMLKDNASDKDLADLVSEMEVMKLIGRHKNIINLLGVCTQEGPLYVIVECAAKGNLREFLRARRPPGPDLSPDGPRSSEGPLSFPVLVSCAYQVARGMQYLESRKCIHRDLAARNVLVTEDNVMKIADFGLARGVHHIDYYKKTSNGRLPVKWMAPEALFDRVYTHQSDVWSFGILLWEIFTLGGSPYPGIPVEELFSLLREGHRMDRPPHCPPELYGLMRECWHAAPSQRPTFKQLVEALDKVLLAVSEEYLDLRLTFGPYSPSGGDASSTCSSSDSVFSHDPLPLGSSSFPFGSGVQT
# Assay: Inhibition of FGFR4 (unknown origin) at 5.5 uM by Caliper Mobility Shift Assay
row,SMILES,inhibition
1,CC(=O)Nc1cc(-c2c(-c3ccc(F)cc3)nc(S/C=C\C(=O)O)n2C2CC2)ccn1,< 50%
2,CC(=O)Nc1cc(-c2c(-c3ccc(F)cc3)nc(Sc3cccc(I)n3)n2C2CCCCC2)ccn1,< 50%

# Molecular target: Mitogen-activated protein kinase kinase kinase kinase 4 (Homo sapiens) (UniProt O95819)
# Assay: Inhibition of MAP4K4 (unknown origin) at 5.5 uM by Caliper Mobility Shift Assay
row,SMILES,inhibition
1,CC(=O)Nc1cc(-c2c(-c3ccc(F)cc3)nc(S/C=C\C(=O)O)n2C2CC2)ccn1,< 50%
2,CC(=O)Nc1cc(-c2c(-c3ccc(F)cc3)nc(Sc3cccc(I)n3)n2C2CCCCC2)ccn1,< 50%

# Species: Homo sapiens
# Assay: Inhibition of CDK1B (unknown origin) at 5.5 uM by Caliper Mobility Shift Assay
row,SMILES,inhibition
1,CC(=O)Nc1cc(-c2c(-c3ccc(F)cc3)nc(S/C=C\C(=O)O)n2C2CC2)ccn1,< 50%
2,CC(=O)Nc1cc(-c2c(-c3ccc(F)cc3)nc(Sc3cccc(I)n3)n2C2CCCCC2)ccn1,< 50%

# Molecular target: Proto-oncogene tyrosine-protein kinase receptor Ret (Homo sapiens) (UniProt P07949)
# Assay: Inhibition of RET (unknown origin) at 5.5 uM by Caliper Mobility Shift Assay
row,SMILES,inhibition
1,CC(=O)Nc1cc(-c2c(-c3ccc(F)cc3)nc(S/C=C\C(=O)O)n2C2CC2)ccn1,< 50%
2,CC(=O)Nc1cc(-c2c(-c3ccc(F)cc3)nc(Sc3cccc(I)n3)n2C2CCCCC2)ccn1,< 50%

# Molecular target: T3, Tyrosine-protein kinase ZAP-70 (Homo sapiens) (UniProt P43403)
# T3 sequence (whole entry): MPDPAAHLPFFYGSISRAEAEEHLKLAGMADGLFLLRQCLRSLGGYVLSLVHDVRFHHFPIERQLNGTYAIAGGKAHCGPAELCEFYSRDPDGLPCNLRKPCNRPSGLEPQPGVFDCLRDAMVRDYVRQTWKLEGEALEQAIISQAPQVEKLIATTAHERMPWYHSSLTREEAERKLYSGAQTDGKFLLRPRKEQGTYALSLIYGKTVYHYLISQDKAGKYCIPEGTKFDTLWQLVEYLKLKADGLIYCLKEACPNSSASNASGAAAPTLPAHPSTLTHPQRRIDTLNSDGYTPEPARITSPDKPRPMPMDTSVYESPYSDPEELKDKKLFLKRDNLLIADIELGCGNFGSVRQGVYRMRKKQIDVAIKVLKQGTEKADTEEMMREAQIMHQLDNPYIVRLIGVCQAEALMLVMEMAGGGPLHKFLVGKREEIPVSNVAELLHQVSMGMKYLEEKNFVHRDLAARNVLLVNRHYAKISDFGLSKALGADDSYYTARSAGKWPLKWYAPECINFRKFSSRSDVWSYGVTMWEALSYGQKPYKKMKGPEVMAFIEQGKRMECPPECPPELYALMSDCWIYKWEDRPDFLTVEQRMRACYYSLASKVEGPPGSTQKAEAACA
# Assay: Inhibition of ZAP70 (unknown origin) at 5.5 uM by Caliper Mobility Shift Assay
row,SMILES,inhibition
1,CC(=O)Nc1cc(-c2c(-c3ccc(F)cc3)nc(S/C=C\C(=O)O)n2C2CC2)ccn1,< 50%
2,CC(=O)Nc1cc(-c2c(-c3ccc(F)cc3)nc(Sc3cccc(I)n3)n2C2CCCCC2)ccn1,< 50%

# Test system: Fibroblast growth factor receptor 3 (Homo sapiens), P22607 [K650E]
# Assay: Inhibition of FGFR3 K650E (unknown origin) at 5.5 uM by Caliper Mobility Shift Assay
row,SMILES,inhibition
1,CC(=O)Nc1cc(-c2c(-c3ccc(F)cc3)nc(S/C=C\C(=O)O)n2C2CC2)ccn1,< 50%
2,CC(=O)Nc1cc(-c2c(-c3ccc(F)cc3)nc(Sc3cccc(I)n3)n2C2CCCCC2)ccn1,< 50%

# Molecular target: Protein kinase C alpha type (Homo sapiens) (UniProt P17252)
# Assay: Inhibition of PRKCA (unknown origin) at 5.5 uM by Caliper Mobility Shift Assay
row,SMILES,inhibition
1,CC(=O)Nc1cc(-c2c(-c3ccc(F)cc3)nc(S/C=C\C(=O)O)n2C2CC2)ccn1,< 50%
2,CC(=O)Nc1cc(-c2c(-c3ccc(F)cc3)nc(Sc3cccc(I)n3)n2C2CCCCC2)ccn1,< 50%
